Experimental data taken from US7070978B2, “Method for expressing and purifying proteins using budded baculovirus” (Toudai TLO, Ltd., priority 2001, dated 2006).

Target: S1P (Homo sapiens, UniProt Q14703)
Conditions: 10 mM EDTA; SREBP2-BV + S1P-BV, 5 mM calcium, 37° C. for 12 hours, Western blot with anti-serum R004
Procedure: Sf9 cells were infected with recombinant viruses of S1P or SREBP at MOI 5. 72 hours later, the BV fraction was recovered by centrifugation as in Examples 1 and 2, and then suspended in TBS buffer (10 mM Tris, 150 mM NaCl, pH7.5). BV suspended in TBS was subjected to a protein determination with a protein determination kit (Bio-Rad). Reaction solutions of SREBP2-BV as a substrate and S1P-BV as an enzyme were prepared to have respective final concentrations of 10 μg per reaction solution. In addition, calcium ions required for activation of S1P were added to the reaction solution at a concentration, as calcium acetate, which enables to measure activity. Calcium, EDTA (pH7.4) and EGTA (pH7.4) were added to BV solution, and then added with TBS buffer (pH7.4) to a reaction volume of 20 μl, followed by incubation at 37° C. for 12 hours. Following reaction, the solution was subjected to heat treatment with 5×SDS sample buffer at 95° C. for 10 minutes, subjected to 8% SDS-PAGE and Western blot using rabbit anti-serum R004 against the amino terminal of SREBP2.
BV expressing SREBP or S1P was mixed, incubated at 37° C. for 12 hours, and then allowed to react in the presence of 5 mM calcium.

Sequence of S1P (Q14703 187-1052): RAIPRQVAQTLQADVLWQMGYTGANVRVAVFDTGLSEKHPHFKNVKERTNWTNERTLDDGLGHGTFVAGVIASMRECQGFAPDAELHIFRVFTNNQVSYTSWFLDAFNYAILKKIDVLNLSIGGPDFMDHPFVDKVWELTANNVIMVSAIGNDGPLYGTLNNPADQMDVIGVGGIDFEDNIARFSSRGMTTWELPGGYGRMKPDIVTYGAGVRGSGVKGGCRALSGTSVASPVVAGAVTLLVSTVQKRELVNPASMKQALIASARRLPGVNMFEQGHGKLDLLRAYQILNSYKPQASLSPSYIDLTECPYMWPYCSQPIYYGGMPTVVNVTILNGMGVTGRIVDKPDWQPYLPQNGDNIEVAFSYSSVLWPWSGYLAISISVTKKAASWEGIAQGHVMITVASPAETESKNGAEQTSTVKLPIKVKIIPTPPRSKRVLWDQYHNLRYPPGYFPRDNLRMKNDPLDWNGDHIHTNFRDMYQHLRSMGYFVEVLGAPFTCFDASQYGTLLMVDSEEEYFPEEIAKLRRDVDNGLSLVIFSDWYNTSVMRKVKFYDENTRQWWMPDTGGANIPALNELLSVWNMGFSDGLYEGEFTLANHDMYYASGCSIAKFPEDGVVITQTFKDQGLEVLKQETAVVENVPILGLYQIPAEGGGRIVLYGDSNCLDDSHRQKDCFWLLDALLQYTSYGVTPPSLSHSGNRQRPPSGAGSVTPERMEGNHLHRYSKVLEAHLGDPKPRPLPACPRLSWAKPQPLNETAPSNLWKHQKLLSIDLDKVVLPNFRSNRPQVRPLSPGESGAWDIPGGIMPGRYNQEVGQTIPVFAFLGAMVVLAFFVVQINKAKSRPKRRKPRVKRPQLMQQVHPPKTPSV

inhibition of degradation (cleavage) of SREBP2 by S1P: completely inhibited
SMILES: O=C(O)CN(CCN(CC(=O)O)CC(=O)O)CC(=O)O [EDTA]
